Assay results published in US20250304526A1, “HIGH AND MULTIPLE REDOX POTENTIAL, STABLE, AND SOLUBLE BIS-DIARYLAMINE DERIVATIVES AND USES THEREOF” (University of Kentucky Research Foundation, priority 2024, published 2025).
Converted amounts (≈) assume the structure as drawn. Like-named read-outs stand apart in the source and are kept apart here.

Key:
Assay type in all cases: physicochemical
[1] = Solubility determination in pure acetonitrile by mass measurement
Experimental: The solubility of the compounds in pure acetonitrile was determined by the mass measurement method described previously. Saturated solutions of each compound were prepared and filtered to remove any undissolved material. Afterwards, 3 mL of each solution were taken and added to previously weighed vials (the measurement was repeated three times for each solution, i.e. 3 vials for each solution). The vials were then stored open in a nitrogen-filled glove box to allow the slow evaporation of the solvent. After 10 days, acetonitrile was evaporated from all vials, leaving only the previously dissolved solid. The vials were then re-weighed and the mass of the solid was determined by subtracting the mass of the respective empty vial. The concentration of the compound was calculated from the mass of the dissolved solid and the volume of the sample placed into the vial.
The solubilities of 1-4 were examined in pure CH3CN using the mass measurement method.

[2] = UV-NIR spectroscopy of radical cations (IVCT band, Hush analysis); details: for ν1/2, Hush (Hush-theory predicted band width): predicted from νmax at 298 K; for ν1/2 (measured IVCT band width) / νmax (IVCT band): radical cation, 0.5 mM in pure CH3CN
Experimental: (§1) In an argon-filled glove box, 0.5 mM solutions of neutral and radical cation were prepared in acetonitrile and pipetted into 1 mm path length optical glass cuvettes. The choice of this path length of cuvette is dictated by the aim to prevent the UV-vis detector saturation of the intensely colored cationic species. All samples destined to UV-vis stability monitoring contained 0.1 M TBAPF6 whereas UV-NIR samples were in pure CH3CN. Solutions were added to the cuvettes inside an argon filled glovebox, sealed with a Teflon screw cap and removed from the glovebox for spectral analysis. UV-vis spectra were collected in an Agilent 8453 diode-array spectrometer. Spectra were collected at 0, 1, 3, 4, 5, 6 and 24 h after dissolution.
The synthesized cations were also characterized using UV-NIR spectroscopy (FIG. 3). From FIG. 3 it can be clearly seen that the spectra of the charged forms change dramatically as compared to the neutral forms. […] These values match perfectly to those reported by Lambert and Noll for the same molecules using spectroelectrochemistry in 0.1 M TBAPF6 in dichloromethane.^21
Class II or III assignment is based on electronic spectroscopy; the broadness and line shape of the IVCT transition is analyzed in this case. Analysis of the line broadness and line shape of the IVCT band is also used to determine whether a mixed-valence species belongs to Class II or III. Hush theory provides a relationship that simplifies at 298 K to:
where vmax is the maximum absorption of the IVCT band given in […].

[3] = Stability via UV-vis spectroscopy over 24 h; details: 0.5 mM in 0.1 M TBAPF6/CH3CN
Experimental: as §1
UV-vis spectroscopy provides a means to monitor the stabilities of the radical cations over prolonged time scales that extend beyond that offered by CV. This is possible since all the charged forms show absorption features in the UV and visible regions, which enables monitoring of the change of concentrations over the course of time, based on changes in peak intensities.
The radical cation samples were prepared in 0.1 M TBAPF6/CH3CN inside an argon-filled glovebox and transferred into sealed cuvettes to prevent contact with atmospheric moisture/air when taken outside the glovebox. […]
The neutral samples of each molecule were also monitored for the sake of comparison. […]

[4] = organic solvent or mixture, thermodynamic from solid, read-out: Solubility

Structure (SMILES)	solubility [1] [mM]	solubility [1, 4] [mM]	ν1/2, Hush (Hush-theory predicted band width) [2] [cm⁻¹]	ν1/2 (measured IVCT band width) [2] [cm⁻¹]	νmax (IVCT band) [2] [cm⁻¹]	νmax (IVCT band) ([2]; listed as 1^⋅) [cm⁻¹]	Stability of radical cation UV-vis absorption spectrum [3]
COc1ccc(N(c2ccc(OC)cc2)c2ccc(N(c3ccc(OC)cc3)c3ccc(OC)cc3)cc2)cc1 [1^+⋅]	8.76 (≈ 4670 µg/mL)	9 (≈ 4790 µg/mL)	4756	3846	9790	~10000	
COc1ccc(N(c2ccc(OC)cc2)c2ccc(-c3ccc(N(c4ccc(OC)cc4)c4ccc(OC)cc4)cc3)cc2)cc1 [2^+⋅]		3.5 (≈ 2130 µg/mL)	4740	3524	9728		
Cc1ccc(C(F)(F)F)cc1N(c1ccc(N(c2cc(C(F)(F)F)ccc2C)c2cc(C(F)(F)F)ccc2C)cc1)c1cc(C(F)(F)F)ccc1C [3^+⋅]	13.34 (≈ 9880 µg/mL)	13 (≈ 9630 µg/mL)	5448	4018	12849		very subtle changes
Cc1ccc(C(F)(F)F)cc1N(c1ccc(-c2ccc(N(c3cc(C(F)(F)F)ccc3C)c3cc(C(F)(F)F)ccc3C)cc2)cc1)c1cc(C(F)(F)F)ccc1C [4^+⋅]		13 (≈ 10600 µg/mL)	4362	2519	8238		rapid decay
